Laboratory results reported in US10738275B2, “Paenibacillus sp. strain, cultivation method and use of the same” (BRIGHT DAIRY & FOOD CO., LTD, priority 2016, dated 2020).

Legend:
[1] = system: B. infantis; assay: in-vitro culture of infant fecal flora, PCR-intestinal microarray detection; assay type: cell-based; settings: 0.4% (w/v) added, infant fecal flora in SIEM, anaerobic, 8 hours, 37° C.; blank control defined as 0
Description: (§1) The standard culture solution of fecal flora is prepared in accordance with the method of Minekus et al (Models of the gastrointestinal tract to study microbial interactions Original Research Article Biology of Growing Animals, 2005, 2:142-154).
(§2) (2) Certain amount of standard ileum efflux culture medium (SIEM, with 0.047 g/L pectin, 0.047 g/L xyloglucan, 0.047 g/L arabinogalactan, 0.047 g/L amylose, 0.392 g/L starch, 24.0 g/L casein, 17.0 g/L Tween 80, 24.0 g/L bacto peptone, 0.4 g/L oxgall, and 0.2 g/L cysteine) is added into a 96-well microtitration plate. Then, the 0.1% of the standard culture solution of fecal flora is added. The percentage refers to the volume percentage of the standard ileum efflux culture medium. Then, 0.4% of the purified extracellular polysaccharide (“BD3526 extracellular polysaccharide” for short) obtained in Example 11 and 0.4% of the commercialized fructooligosaccharide (FOS for short) are added into different wells among the 96 wells respectively. The final volume of liquid in each well is 1.5 mL. Meanwhile, the blank control is arranged. They are anaerobically cultured for 8 hours under 37° C. The percentage refers to the mass-volume percentage of the final volume of the liquid in a well of the 96-well microtitration plate.
(§3) (3) Once the cultivation is completed, the fermentation broth is mixed with 250 μL of lysis buffer, […], of zirconium bead liquid (0.1 mm) and 200 μL of phenol solution. Then they are homogenized on the bead beater (BIO SPEC Inc. U.S.) for twice (2 minutes for each time). The DNA is extracted with DNA Kit (TIANGEN BIOTECH CO., LTD). Then, PCR-intestinal microarray detection method (SALAZAR N, GUEIMONDE M, HERNANDEZ-BARRANCO A M, et al. Exopolysaccharides produced by intestinal Bifidobacterium strains act as fermentable substrates for human intestinal bacteria. Applied and environmental microbiology, 2008, 74(15): 4737-45.) is used to analyze the number of floras in samples with respect to that of the blank control (standard solution of fecal flora cultured without adding polysaccharide).

[2] = system: B. breve; assay: as above; assay type: cell-based; settings: 0.4% (w/v) added, infant fecal flora in SIEM, anaerobic, 8 hours, 37° C.; blank control defined as 0
Description: as §1, §2, §3

[3] = system: B. Longum; assay: as above; assay type: cell-based; settings: 0.4% (w/v) added, infant fecal flora in SIEM, anaerobic, 8 hours, 37° C.; blank control defined as 0
Description: as §1, §2, §3

[4] = system: All bacteria; assay: as above; assay type: cell-based, infants' fecal flora; settings: 0.4% (w/v) added, infant fecal flora in SIEM, anaerobic, 8 hours, 37° C.; blank control defined as 0
Description: as §1
(2) Certain amount of standard ileum efflux culture medium (SIEM, with 0.047 g/L pectin, 0.047 g/L xyloglucan, 0.047 g/L arabinogalactan, 0.047 g/L amylose, 0.392 g/L starch, 24.0 g/L casein, 17.0 g/L Tween 80, 24.0 g/L bacto peptone, 0.4 g/L oxgall, and 0.2 g/L cysteine) is added into a 96-well microtitration plate. Then, the 0.1% of the standard culture solution of fecal flora is added. The percentage refers to the volume percentage of the standard ileum efflux culture medium. Then, 0.4% of the purified extracellular polysaccharide (“BD3526 extracellular polysaccharide” for short) obtained in Example 11 and 0.4% of the commercialized fructooligosaccharide (FOS for short) are added into different wells among the 96 wells respectively. The final volume of liquid in each well is 1.5 mL. Meanwhile, the blank control is arranged. They are anaerobically cultured for 8 hours under 37° C. The percentage refers to the mass-volume percentage of the final volume of the liquid in a well of the 96-well microtitration plate. […]

[5] = system: All bifidobacteria; assay: as above; assay type: cell-based, bifidobacteria in infants' fecal flora; settings: 0.4% (w/v) added, 8 hours, 37° C.; for The increased log (ORF/mL) value of the flora in samples with respect to the blank control, All bifidobacteria: infant fecal flora in SIEM, anaerobic, blank control defined as 0
Description: as §1, §2, §3

[6] = system: human intestinal flora; assay: in-vitro culture of adult fecal flora, PCR-DGGE of V3 area for total bacteria; assay type: cell-based; settings: 0.4% added, faeces of healthy adults, anaerobic, 24 hours, 37° C.
Description: (1) The faeces of 30 healthy adults (male or female, with the age range from 23 to 25, excluding those who have intestinal diseases or taking antibiotic drugs recently). They are dissolved in pH7.3-phosphate buffer (8 g/L-NaCl, 0.2 g/L-KCl, 1.15 g/L-NaHPO4, and 0.2 g/L-KH2PO4) and mixed uniformly. It is added into the culture system at a volume ratio of 1:10. Then, 0.4% of the purified extracellular polysaccharide (BD3526EPS for short) obtained in Embodiment 11 and 0.4% of the commercialized fructooligosaccharide (FOS for short) are added into the culture system respectively. Meanwhile, the blank control is arranged. They are anaerobically cultured for 24 hours under 37° C. The percentages refer to the mass-volume percentages of the culture system.
(2) Once the culture is completed, the phenol-chloroform method (ERCOLINI D, HILL P J, DODD C E. Bacterial community structure and location in Stilton cheese. Applied and environmental microbiology, 2003, 69(6): 3540-8.) is used to extract the DNA of the cultures and fecal flora. […]

Substance	The increased log (ORF/mL) value of the flora in samples with respect to the blank control, B. infantis [1]	The increased log (ORF/mL) value of the flora in samples with respect to the blank control, B. breve [2]	The increased log (ORF/mL) value of the flora in samples with respect to the blank control, B. Longum [3]	The increased log (ORF/mL) value of the flora in samples with respect to the blank control, All bacteria [4]	The increased log (ORF/mL) value of the flora in samples with respect to the blank control, All bifidobacteria [5]	brightness of PCR-DGGE stripes (FIG. 12), proliferation of bacteria in human intestinal flora, in words [6]	proliferation of the bifidobacteria in infants' fecal flora compared with the blank control group (FIG. 11), in words [5]
fructooligosaccharide [FOS, reference compound]	−0.121 log (ORF/mL)	1.18 log (ORF/mL)	0.37 log (ORF/mL)	0.12 log (ORF/mL)	1.07 log (ORF/mL)	–	–
levan [BD3526 extracellular polysaccharide]	0.017 log (ORF/mL)	0.81 log (ORF/mL)	0.36 log (ORF/mL)	0.448 log (ORF/mL)	0.74 log (ORF/mL)	significantly brighter than those of the FOS group and the blank control group	can also promote the proliferation of the bifidobacteria in infants' fecal flora
